pIC50: −log10 of the molar value. Calls of active or inactive are those of the source. The rule behind the calls is not given here.
What was measured:
[1] = Cytotoxicity against human U87 cells assessed as viability in presence of beta glucuronidase; type: functional, cell-based, U-87MG ATCC; conditions: U-87 MG
U-87MG ATCC = assay: Cytotoxicity against human U87 cells assessed as viability at 200 uM after 5 days by MTS assay; type: functional, cell-based

| Compound | pIC50 [1] | Activity (U-87MG ATCC) |
| --- | --- | --- |
| CC1=C2C[C@H]3[C@@H](CC=C4C[C@@H](O)CC[C@@]43C)[C@@H]2CC[C@]12O[C@@H]1C[C@H](C)CN[C@H]1[C@H]2C [CYCLOPAMINE] | 4.81 |  |
| CC1=C2C[C@H]3[C@@H](CC=C4C[C@@H](O)CC[C@@]43C)[C@@H]2CC[C@]12O[C@@H]1C[C@H](C)CN(C(=O)OCc3ccc(O[C@@H]4O[C@H](C(=O)O)[C@@H](O)[C@H](O)[C@H]4O)c([N+](=O)[O-])c3)[C@H]1[C@H]2C | 4.68 | inactive |

— ChEMBL document CHEMBL1157045, “Study of a cyclopamine glucuronide prodrug for the selective chemotherapy of glioblastoma” (Eur J Med Chem, 2010)
